{"source": "paper PMC8575619", "about": "“Cytotoxic and Antifungal Amides Derived from Ferulic Acid: Molecular Docking and Mechanism of Action” (BioMed Research International, 2021)", "key": {"[1]": {"system": "HCT116", "test": "Cytotoxicity assay, alamar blue test", "format": "cell-based, human", "settings": "Homo sapiens, HCT-116, 72 h, value (95% confidence interval)", "procedure": "(§1) HepG2 cells (human hepatocellular carcinoma), HCT116 (human colon carcinoma), HL-60 (human promyelocytic leukemia), and MRC5 (human lung fibroblast) obtained from the ATCC (Manassas, VA, USA) were used. Cells were cultured in cell culture bottles (75 cm 3, 250 mL volume), and media used were RPMI 1640 and supplemented with 10% fetal bovine serum. Cells were maintained in incubators with 5% CO2 atmosphere at 37°C. Cellular growth was monitored daily with the use of an inversion microscope. The medium was changed whenever cell growth reached the necessary confluence for nutrient renewal. For the maintenance of adhered cells, trypsin (0.25%) was used for the cells to detach from the walls of the bottles.\n(§2) To assess the cytotoxicity of the substances, the alamar blue test was performed after 72 h of exposure with the test substances. Alamar blue, known as resazurin [62], is a fluorescent/colorimetric indicator with redox properties. The reduction in alamar blue reflects cell proliferation. This was initially used to indicate cell growth and/or viability in monitoring lymphocyte proliferation and currently has several applications. Initially, cells were plated in 96-well plates (100 μL/well of a solution of 0.3 × 10^6 cells/mL for cells in suspension and 0.7 × 10^5 cells/mL for adhered cells). After 24 h of incubation, the test substances dissolved in DMSO were added to each well and incubated for 72 h. Doxorubicin was used as a positive control. The negative control received the same amount of DMSO. Four hours before the end of the incubation period, 20 μL of the stock solution (0.312 mg/mL) of alamar blue (resazurin) was added to each well. Absorbances were measured at wavelengths of 570 nm (reduced) and 600 nm (oxidized) using a plate reader."}, "[2]": {"system": "HL-60", "test": "Cytotoxicity assay, alamar blue test", "format": "cell-based, human", "settings": "Homo sapiens, HL-60, 72 h, value (95% confidence interval), read-out: IC50 HL60", "procedure": "as §1, §2"}, "[3]": {"system": "HepG2 cells", "test": "Cytotoxicity assay, alamar blue test", "format": "cell-based, human", "settings": "Homo sapiens, HepG2, 72 h, value (95% confidence interval)", "procedure": "as §1, §2"}, "[4]": {"system": "MRC5", "test": "Cytotoxicity assay, alamar blue test (healthy cell line)", "format": "cell-based, human", "settings": "Homo sapiens, MRC5, 72 h, value (95% confidence interval)", "procedure": "as §1, §2"}, "[5]": {"system": "Candida albicans CBS 562", "test": "MIC by broth microdilution", "format": "cell-based", "settings": "Candida albicans, CBS562, 24 h, N.A.: no activity, read-out: MIC C. albicans CBS 562", "procedure": "(§3) Antifungal activity evaluations were performed using references strains of Candida spp., obtained from the Centraalbureau voor Schimmelcultures (CBS, Ultrecht, Netherlands): Candida albicans CBS 562, Candida tropicalis CBS 94, and Candida krusei CBS 573. Nystatin, Tween 80%, DMSO, caspofungin diacetate, and ergosterol were obtained from Sigma-Aldrich® (St. Louis, MO, EUA) and sorbitol (D-sorbitol anhydrous) from INLAB® (São Paulo, Brazil). All assays were performed in triplicate in three independent experiments. The culture medium used for maintenance of the microorganisms was Agar Sabouraud Dextrose (ASD). Inoculants were adjusted to a final concentration of 2.5 × 10^3 CFU/mL (Clinical and Laboratory Standards Institute, 2002). […]\n(§4) MIC was determined by the microdilution technique, as previously described by the adapted Clinical and Laboratory Standards Institute (CLSI, 2002) method. The compounds were subjected to the microdilution technique in 96-well plates, with U bottom. The samples were dissolved with DMSO and sterile distilled water (up to 1.0 mL). Through serial dilutions, concentrations of the evaluated compounds ranging from 1000 μg/mL to 7.8 μg/mL. The culture sterility medium, the evaluated substances, and the microbial growth were carried out in parallel. The plates were closed and subjected to a temperature of 35 ± 2°C for 24 h. 1% TTC (2,3,5-triphenyl tetrazolium chloride, Sigma-Aldrich®, St. Louis, MO, EUA) was added to each well to confirm the presence of viable microorganisms. MIC was defined as the lowest concentration of the test substance that inhibits visible microbial growth."}, "[6]": {"system": "Candida krusei CBS 573", "test": "MIC by broth microdilution", "format": "cell-based", "settings": "Pichia kudriavzevii, CBS573, 24 h, N.A.: no activity, read-out: MIC C. krusei CBS 573", "procedure": "as §3, §4"}, "[7]": {"system": "Candida tropicalis CBS 94", "test": "MIC by broth microdilution", "format": "cell-based", "settings": "CBS94, 24 h, N.A.: no activity, read-out: MIC C. tropicalis CBS 94", "procedure": "as §3, §4"}, "[8]": {"system": "Candida albicans CBS 562", "test": "Minimum fungicide concentration (MFC)", "format": "cell-based", "procedure": "as §3\n(§5) The minimum fungicide concentration (MFC) of the compounds was obtained after the interpretation of the MIC. Three (3) aliquots of 30 μL of supernatant were removed from the wells (where complete inhibition of fungal growth was analyzed) and placed in Petri dishes containing 15 mL of agar Sabouraud dextrose. The plates were incubated at 35 ± 2°C for 24 h for visual counting of colony forming units. To determine whether the compounds had fungistatic (MFC/MIC ≥ 4) or fungicidal (MFC/MIC < 4) activity, the MFC/MIC ratio was calculated."}, "[9]": {"system": "Candida krusei CBS 573", "test": "Minimum fungicide concentration (MFC)", "format": "cell-based", "procedure": "as §3, §5"}, "[10]": {"system": "Candida tropicalis CBS 94", "test": "Minimum fungicide concentration (MFC)", "format": "cell-based", "procedure": "as §3, §5"}, "[11]": {"system": "Candida strains (Candida albicans, C. tropicalis, and C. krusei)", "test": "Antifungal evaluation (MIC/MFC), statements for all Candida strains", "format": "cell-based, Candida spp.", "settings": "Candida strains; read-out: bioactivity category by MIC", "procedure": "The antifungal activity (Table 2) of the ten amides was assessed via the minimum inhibitory concentration (MIC) which was determined using the microdilution methods against three species of Candida strains (Candida albicans, C. tropicalis, and C. krusei).\nas §3, §4\nas §5, with “units.” for “units. To determine whether the compounds had fungistatic (MFC/MIC ≥ 4) or fungicidal (MFC/MIC < 4) activity, the MFC/MIC ratio was calculated.”"}, "[12]": {"system": "C. albicans CBS 562", "test": "Sorbitol assay (cell wall mechanism), microdilution", "format": "cell-based, Candida albicans", "settings": "Candida albicans, CBS562, C. albicans CBS 562", "procedure": "(1) Sorbitol Assay. The microdilution technique was performed in the presence of sorbitol (D-sorbitol, anhydrous) (INLAB laboratory), to determine the mode of action of the compounds on the cell wall of C. albicans CBS 562. For this test, the inoculum was prepared with sorbitol to a final concentration of 0.8 M. The plates were incubated at 35 ± 2°C, and readings were taken 24 h and 48 h after incubation. Caspofungin was used as positive control at an initial concentration of 5 mg/mL [68–70]."}, "[13]": {"system": "C. albicans", "test": "Ergosterol test (plasma membrane mechanism), microdilution", "format": "cell-based, Candida albicans", "settings": "Candida albicans", "procedure": "(2) Ergosterol Test. The test of the compounds was performed using the microdilution technique, as previously described, in the presence of exogenous ergosterol at 400 μg/mL. Nystatin was used as positive control. The plates were incubated at 35 ± 2°C, and readings were taken at 24 and 48 h."}, "[14]": {"settings": "≥ 4 fungistatic or <4 fungicide"}}, "note": "Where “and” joins values, the source holds several entries; their conditions need not be identical. Equal entries are not always repeated. Where two headings read alike, the source gives them in different places."}
{"smiles": "COc1cc(C=CC(=O)NCc2ccc3c(c2)OCO3)ccc1O", "note": "[Compound 11]", "values": [{"measurement": "IC50", "setting": "[1]", "result": "> 25 µg/mL and > 76.4 µM"}, {"measurement": "IC50", "setting": "[2]", "result": "18.8 µg/mL and 57.4 µM"}, {"measurement": "IC50", "setting": "[3]", "result": "> 25 µg/mL and > 76.4 µM"}, {"measurement": "IC50", "setting": "[4]", "result": "> 25 µg/mL and > 76.4 µM"}, {"measurement": "MIC", "setting": "[5]", "result": "62.5 µg/mL and 190 µM"}, {"measurement": "MIC", "setting": "[6]", "result": 62.5, "unit": "µg/mL"}, {"measurement": "MIC", "setting": "[7]", "result": 500, "unit": "µg/mL"}, {"measurement": "MFC", "setting": "[8]; Candida albicans, CBS562, N.A.: no activity, read-out: MFC C. albicans CBS 562", "result": "125 µg/mL and 380 µM"}, {"measurement": "MIC/MFC reason C. albicans CBS 562", "setting": "[8]; [14]", "result": 2}, {"measurement": "MFC", "setting": "[9]; Pichia kudriavzevii, CBS573, N.A.: no activity, read-out: MFC C. krusei CBS 573", "result": "62.5 µg/mL and 190 µM"}, {"measurement": "MIC/MFC reason C. krusei CBS 573", "setting": "[9]; [14]", "result": 1}, {"measurement": "MFC", "setting": "[10]; Candida tropicalis, CBS94, N.A.: no activity, read-out: MFC C. tropicalis CBS 94", "result": "500 µg/mL and 1520 µM"}, {"measurement": "MIC/MFC reason C. tropicalis CBS 94", "setting": "[10]; [14]", "result": 1}, {"measurement": "MIC", "setting": "[11]", "result": "26 to 125", "unit": "µg/mL"}, {"measurement": "MIC", "setting": "[12]; absence of sorbitol, read-out: MIC Without sorbitol", "result": 15.6, "unit": "µg/mL"}, {"measurement": "MIC", "setting": "[12]; sorbitol 0.8 M, read-out: MIC With sorbitol", "result": "> 1000", "unit": "µg/mL"}, {"measurement": "MIC", "setting": "[13]; absence of ergosterol, read-out: MIC Without ergosterol", "result": 62.2, "unit": "µg/mL"}, {"measurement": "MIC", "setting": "[13]; exogenous ergosterol at 400 μg/mL, read-out: MIC With ergosterol", "result": 62.2, "unit": "µg/mL"}, {"measurement": "melting point", "result": "172 to 175", "unit": "°C"}]}
